Literature values, collected in patent US12421507B2, “Methods and compositions for optochemical control of CRISPR-CAS9” (THE BROAD INSTITUTE, INC., priority 2018, dated 2025).

Columns and labels:
mammalian DHFR (DHFRts) = settings: cells expressing DHFRts
dystrophin exon 51 = settings: across 48 weeks

CN(Cc1cnc2nc(N)nc(N)c2n1)c1ccc(C(=O)N[C@@H](CCC(=O)O)C(=O)O)cc1 [methotrexate]
degradation of DHFRts (mammalian DHFR (DHFRts)): inhibited degradation of the protein partially

CC[C@H](C(=O)N1CCCC[C@H]1C(=O)O[C@H](CCc1ccc(OC)c(OC)c1)c1cccc(OCCN2CCOCC2)c1)c1cc(OC)c(OC)c(OC)c1 [Shield-1]
binding to and stabilization of the DD (Mutants of human FKBP12): bind to and stabilize the DD in a dose-dependent manner

eteplirsen
average dystrophin positive fibers compared to baseline (dystrophin exon 51): 47%
